Residues, ends and D or L forms follow the SMILES beside them.
Tested on: adipocytes
Experiment: 3H-glucose uptake into adipocytes (fat cell assay, FFC)
Type: cell-based, Mouse
Design: key to FFC: 0 is no effect; + is agonist; - is antagonist

Row | SMILES | FFC
1 | CC(C)[C@@H](NC(=O)[C@@H](Cc1ccccc1)NC(=O)[C@@H](Cc1c[nH]c2ccccc12)NC(=O)[C@@H](CC(=O)O)NC(=O)[C@@H](Cc1ccc(O)cc1)NC(=O)[C@@H](Cc1ccccc1)NC(=O)[C@@H](CC(N)=O)NC(=O)[C@@H](CCC(=O)O)NC(=O)[C@@H](Cc1c[nH]cn1)NC(=O)[C@H](N)Cc1ccccc1)C(=O)N[C@H](CCCNC(=N)N)C(=O)N[C@H](CCC(N)=O)C(=O)N[C@@H](C(=O)N[C@H](CO)C(=O)N[C@H](CCCCN)C(=O)N[C@H](CCCCN)C(=O)O)C(C)C [Clone S114] | 0
2 | CC[C@H](C)[C@H](NC(=O)[C@H](C)NC(=O)[C@H](CC(N)=O)NC(=O)[C@H](Cc1ccc(O)cc1)NC(=O)[C@H](Cc1ccccc1)NC(=O)CNC(=O)[C@H](CC(=O)O)NC(=O)[C@@H](N)CO)C(=O)N[C@@H](CCC(=O)O)C(=O)N[C@@H](CC(C)C)C(=O)N[C@@H](CC(C)C)C(=O)N[C@@H](CO)C(=O)O [Clone S118] | +
3 | CC(C)C[C@H](NC(=O)CNC(=O)[C@H](CCC(N)=O)NC(=O)[C@H](Cc1ccccc1)NC(=O)[C@H](Cc1ccc(O)cc1)NC(=O)[C@H](CO)NC(=O)[C@H](Cc1ccc(O)cc1)NC(=O)[C@H](Cc1ccccc1)NC(=O)[C@H](CC(=O)O)NC(=O)[C@H](CO)NC(=O)[C@@H](N)Cc1c[nH]c2ccccc12)C(=O)N[C@@H](CC(=O)O)C(=O)O [Clone S127] | 0
4 | CC(C)[C@H](NC(=O)[C@H](Cc1ccccc1)NC(=O)[C@H](Cc1c[nH]c2ccccc12)NC(=O)[C@H](CC(=O)O)NC(=O)[C@H](Cc1ccc(O)cc1)NC(=O)[C@H](Cc1ccccc1)NC(=O)[C@H](CC(N)=O)NC(=O)[C@H](CCC(=O)O)NC(=O)[C@H](Cc1c[nH]cn1)NC(=O)[C@@H](N)Cc1ccccc1)C(=O)N[C@@H](CCCNC(=N)N)C(=O)N[C@@H](CCC(N)=O)C(=O)N[C@H](C(=O)N[C@@H](CO)C(=O)N[C@@H](CCCCN)C(=O)N[C@@H](CCCCN)C(=O)N[C@@H](CNC(=O)CON)C(N)=O)C(C)C [Clone S131] | +
5 | CC(C)[C@H](NC(=O)[C@H](Cc1ccccc1)NC(=O)[C@H](Cc1c[nH]c2ccccc12)NC(=O)CNC(=O)[C@H](Cc1ccc(O)cc1)NC(=O)[C@H](Cc1ccccc1)NC(=O)[C@H](CC(N)=O)NC(=O)[C@H](CCC(=O)O)NC(=O)[C@@H](N)Cc1c[nH]cn1)C(=O)N[C@@H](CCCNC(=N)N)C(=O)N[C@@H](CCC(N)=O)C(=O)N[C@H](C(=O)N[C@@H](CO)C(=O)N[C@@H](CCCCN)C(=O)N[C@@H](CCCCN)C(=O)O)C(C)C [Clone S137] | 0
6 | CC(C)[C@H](NC(=O)[C@H](Cc1ccccc1)NC(=O)[C@H](Cc1c[nH]c2ccccc12)NC(=O)[C@H](CC(=O)O)NC(=O)[C@H](Cc1ccc(O)cc1)NC(=O)[C@H](Cc1ccccc1)NC(=O)[C@H](CC(N)=O)NC(=O)[C@H](CCC(=O)O)NC(=O)[C@H](Cc1c[nH]cn1)NC(=O)[C@@H](N)Cc1ccccc1)C(=O)N[C@@H](CCCNC(=N)N)C(=O)N[C@@H](CCC(N)=O)C(=O)N[C@H](C(=O)N[C@@H](CO)C(=O)N[C@@H](CCCCN)C(=O)N[C@@H](CCCCN)C(=O)NCC[C@H](NC(=O)[C@H](CCCCN)NC(=O)[C@H](CCCCN)NC(=O)[C@H](CO)NC(=O)[C@@H](NC(=O)[C@H](CCC(N)=O)NC(=O)[C@H](CCCNC(=N)N)NC(=O)[C@@H](NC(=O)[C@H](Cc1ccccc1)NC(=O)[C@H](Cc1c[nH]c2ccccc12)NC(=O)[C@H](CC(=O)O)NC(=O)[C@H](Cc1ccc(O)cc1)NC(=O)[C@H](Cc1ccccc1)NC(=O)[C@H](CC(N)=O)NC(=O)[C@H](CCC(=O)O)NC(=O)[C@H](Cc1c[nH]cn1)NC(=O)[C@@H](N)Cc1ccccc1)C(C)C)C(C)C)C(N)=O)C(C)C [Clone S152] | +
7 | CC(C)C[C@H](NC(=O)[C@H](CCC(=O)O)NC(=O)[C@H](C)NC(=O)[C@@H](NC(=O)[C@H](Cc1ccccc1)NC(=O)[C@H](Cc1c[nH]c2ccccc12)NC(=O)[C@H](CC(=O)O)NC(=O)[C@H](Cc1ccc(O)cc1)NC(=O)[C@H](Cc1ccccc1)NC(=O)[C@H](CC(N)=O)NC(=O)[C@H](C)NC(=O)[C@H](CC(N)=O)NC(=O)[C@H](CCCNC(=N)N)NC(=O)[C@H](CCC(N)=O)NC(=O)[C@H](CC(C)C)NC(=O)[C@@H](N)Cc1c[nH]c2ccccc12)C(C)C)C(=O)NCC(=O)O [Clone S237] | 0
8 | CC(C)C[C@H](NC(=O)[C@H](CCC(=O)O)NC(=O)[C@H](C)NC(=O)[C@@H](NC(=O)[C@H](Cc1ccccc1)NC(=O)[C@H](Cc1c[nH]c2ccccc12)NC(=O)[C@H](CC(=O)O)NC(=O)[C@H](Cc1ccc(O)cc1)NC(=O)[C@H](Cc1ccccc1)NC(=O)[C@H](CC(N)=O)NC(=O)[C@H](C)NC(=O)[C@H](CC(N)=O)NC(=O)[C@H](CCCNC(=N)N)NC(=O)[C@H](CCC(N)=O)NC(=O)[C@@H](N)CC(C)C)C(C)C)C(=O)NCC(=O)O [Clone S238] | 0
9 | CC(C)C[C@H](NC(=O)[C@H](CCC(=O)O)NC(=O)[C@H](C)NC(=O)[C@@H](NC(=O)[C@H](Cc1ccccc1)NC(=O)[C@H](Cc1c[nH]c2ccccc12)NC(=O)[C@H](CC(=O)O)NC(=O)[C@H](Cc1ccc(O)cc1)NC(=O)[C@H](Cc1ccccc1)NC(=O)[C@H](CC(N)=O)NC(=O)[C@H](C)NC(=O)[C@H](CC(N)=O)NC(=O)[C@H](CCCNC(=N)N)NC(=O)[C@@H](N)CCC(N)=O)C(C)C)C(=O)NCC(=O)O [Clone S239] | 0
10 | CC(C)C[C@@H]1NC(=O)[C@H](CO)NC(=O)[C@H](C)NC(=O)CNC(=O)CNC(=O)[C@H](Cc2ccccc2)NC(=O)[C@H](CC(C)C)NC(=O)[C@H](CCC(=O)O)NC(=O)[C@H](CCC(N)=O)NC(=O)[C@H](CC(C)C)NC(=O)[C@H](Cc2ccccc2)NC(=O)[C@@H](NC(=O)[C@H](CC(C)C)NC(=O)[C@@H]2CCCN2)CSSC[C@@H](C(=O)N[C@@H](CO)C(=O)NCC(N)=O)NC(=O)[C@H](Cc2ccc(O)cc2)NC(=O)CNC(=O)CNC1=O [Clone S262] (HELM PEPTIDE1{P.L.C.F.L.Q.E.L.F.G.G.A.S.L.G.G.Y.C.S.G.[am]}$PEPTIDE1,PEPTIDE1,3:R3-18:R3$$$V2.0; N-terminus assumed; bridges inferred) | 0
11 | CC[C@H](C)[C@@H]1NC(=O)[C@H](CCC(=O)O)NC(=O)[C@@H](NC(=O)[C@H](Cc2c[nH]c3ccccc23)NC(=O)[C@@H](NC(=O)[C@H](Cc2c[nH]c3ccccc23)NC(=O)[C@H](C)NC(=O)[C@H](CCCNC(=N)N)NC(=O)[C@H](CCC(=O)O)NC(=O)[C@H](CCC(N)=O)NC(=O)[C@H](CCC(=O)O)NC(=O)[C@H](CC(C)C)NC(=O)[C@@H](N)Cc2c[nH]c3ccccc23)[C@@H](C)CC)CSSC[C@@H](C(=O)N[C@@H](CCCNC(=N)N)C(=O)N[C@@H](C)C(N)=O)NC(=O)CNC(=O)[C@H](CO)NC(=O)CNC(=O)[C@H](CCC(N)=O)NC1=O [Clone S263] (HELM PEPTIDE1{W.L.E.Q.E.R.A.W.I.W.C.E.I.Q.G.S.G.C.R.A.[am]}$PEPTIDE1,PEPTIDE1,11:R3-18:R3$$$V2.0; N-terminus assumed; bridges inferred) | 0
